Legend:
[1] = target: ATP-binding cassette sub-family C member 3 (Homo sapiens, UniProt O15438); assay: Inhibition of human MRP3 overexpressed in Sf9 insect cell membrane vesicles assessed as uptake of [3H]-estradiol-17beta-D-glucuronide in presence of ATP and GSH measured after 10 mins by membrane vesicle transport assay; assay type: ADME, cell-based
[2] = Drug concentration in human at steady state at 1% applied topically BID after 12 hrs; assay type: ADME; details: topical or ocular, read-out: Css
[3] = target: ATP-binding cassette sub-family C member 2 (Homo sapiens, UniProt Q92887); assay: Inhibition of human MRP2 overexpressed in Sf9 cell membrane vesicles assessed as uptake of [3H]-estradiol-17beta-D-glucuronide in presence of ATP and GSH measured after 20 mins by membrane vesicle transport assay
[4] = AUC in human at 1% applied topically BID after 12 hrs; assay type: ADME; design: time < 12 hr; details: topical or ocular
[5] = target: Bile salt export pump (Homo sapiens, UniProt O95342); assay: Inhibition of human BSEP overexpressed in Sf9 cell membrane vesicles assessed as uptake of [3H]-taurocholate in presence of ATP measured after 15 to 20 mins by membrane vesicle transport assay; assay type: ADME, cell-based
[6] = Ratio of drug concentration at steady state at 1% applied topically BID after 12 hrs to IC50 for human BSEP overexpressed in Sf9 insect cells; assay type: ADME; details: topical_or_ocular
[7] = target: T1, ATP-binding cassette sub-family C member 4 (Homo sapiens, UniProt O15439); assay: Inhibition of human MRP4 overexpressed in Sf9 cell membrane vesicles assessed as uptake of [3H]-estradiol-17beta-D-glucuronide in presence of ATP and GSH measured after 20 mins by membrane vesicle transport assay; assay type: ADME, cell-based
T1 sequence (O15439 whole entry): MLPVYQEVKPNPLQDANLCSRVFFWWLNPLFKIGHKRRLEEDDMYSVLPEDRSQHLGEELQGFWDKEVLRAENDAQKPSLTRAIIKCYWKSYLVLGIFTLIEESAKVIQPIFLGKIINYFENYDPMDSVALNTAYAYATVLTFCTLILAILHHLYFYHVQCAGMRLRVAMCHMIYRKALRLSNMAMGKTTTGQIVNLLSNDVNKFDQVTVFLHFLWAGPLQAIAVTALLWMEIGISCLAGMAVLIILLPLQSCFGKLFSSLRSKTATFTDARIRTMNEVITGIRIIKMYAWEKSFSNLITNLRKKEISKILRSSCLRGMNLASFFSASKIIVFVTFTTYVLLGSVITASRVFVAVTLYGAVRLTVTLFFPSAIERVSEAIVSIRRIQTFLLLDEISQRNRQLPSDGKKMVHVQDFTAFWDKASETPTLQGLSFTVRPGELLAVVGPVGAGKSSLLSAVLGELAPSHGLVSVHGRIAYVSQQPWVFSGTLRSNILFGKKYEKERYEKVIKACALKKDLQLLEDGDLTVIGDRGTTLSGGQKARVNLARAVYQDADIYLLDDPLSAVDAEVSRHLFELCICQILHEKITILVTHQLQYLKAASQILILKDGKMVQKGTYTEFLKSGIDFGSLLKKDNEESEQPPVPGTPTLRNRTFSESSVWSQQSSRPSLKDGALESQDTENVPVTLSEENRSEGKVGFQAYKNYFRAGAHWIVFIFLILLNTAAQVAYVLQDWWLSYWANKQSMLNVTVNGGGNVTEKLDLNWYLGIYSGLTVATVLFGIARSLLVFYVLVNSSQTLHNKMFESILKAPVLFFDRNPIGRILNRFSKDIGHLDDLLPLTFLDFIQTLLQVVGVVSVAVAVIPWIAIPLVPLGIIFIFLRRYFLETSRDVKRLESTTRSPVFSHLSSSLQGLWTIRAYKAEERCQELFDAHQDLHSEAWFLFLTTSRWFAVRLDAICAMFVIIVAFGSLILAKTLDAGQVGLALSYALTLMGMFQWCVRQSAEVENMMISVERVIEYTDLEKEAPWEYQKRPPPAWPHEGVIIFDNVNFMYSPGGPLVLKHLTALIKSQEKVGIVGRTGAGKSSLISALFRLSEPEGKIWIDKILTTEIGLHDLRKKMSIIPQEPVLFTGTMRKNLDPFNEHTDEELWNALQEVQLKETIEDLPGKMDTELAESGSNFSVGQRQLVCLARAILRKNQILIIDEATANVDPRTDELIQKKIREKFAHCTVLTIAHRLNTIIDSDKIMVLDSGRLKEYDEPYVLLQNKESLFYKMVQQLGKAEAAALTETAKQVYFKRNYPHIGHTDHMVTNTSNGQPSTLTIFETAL

[8] = tested on: Homo sapiens; assay: Drug concentration at steady state in human at 0.01 to 0.04 mg/kg, po after 24 hrs; assay type: ADME, organism-based; details: in vivo
[9] = clinical; details: human, in vivo, po
[10] = Drug concentration at steady state in human at 60 to 250 mg, po QD after 12 hrs; assay type: ADME, organism-based; details: in vivo, read-out: Css
[11] = Ratio of drug concentration at steady state in human at 60 to 250 mg, po QD after 12 hrs to IC50 for human BSEP overexpressed in Sf9 insect cells; assay type: ADME, organism-based; details: in vivo
[12] = AUC in human at 60 to 250 mg, po QD after 12 hrs; assay type: ADME, organism-based; details: in vivo
[13] = Ratio of drug concentration at steady state in human at 1.5 ug administered as 1 drop intraocularly QD after 24 hrs to IC50 for human BSEP overexpressed in Sf9 insect cells; assay type: ADME; details: in vivo, topical_or_ocular
[14] = AUC in human at 1.5 ug administered as 1 drop intraocularly QD after 24 hrs; assay type: ADME; design: dose 1.5 ug, time < 24 hr, route intraocular; details: in vivo, topical or ocular
[15] = Drug concentration at steady state in human at 1.5 ug administered as 1 drop intraocularly QD after 24 hrs; assay type: ADME; details: in vivo, topical or ocular, read-out: Css
[16] = clinical; details: human, in vivo, po; remark: listed apart in the source
Description: Drug concentration at steady state in human at 10 to 80 mg, po QD after 24 hrs

[17] = AUC in human at 10 to 80 mg, po QD after 24 hrs; assay type: ADME, organism-based; details: in vivo
[18] = Ratio of drug concentration at steady state in human at 20 to 60 mg, po QD after 24 hrs to IC50 for human BSEP overexpressed in Sf9 insect cells; assay type: ADME, organism-based; details: in vivo
[19] = Drug concentration at steady state in human at 20 to 60 mg, po QD after 24 hrs; assay type: ADME, organism-based; details: in vivo, read-out: Css
[20] = AUC in human at 20 to 60 mg, po QD after 24 hrs; assay type: ADME, organism-based; details: in vivo
[21] = Ratio of drug concentration at steady state in human at 20 to 60 mg, po QD after 24 hrs to IC50 for human MRP4 overexpressed in Sf9 insect cells; assay type: ADME, organism-based; details: in vivo

Chain of ATP-binding cassette sub-family C member 3 (O15438 whole entry): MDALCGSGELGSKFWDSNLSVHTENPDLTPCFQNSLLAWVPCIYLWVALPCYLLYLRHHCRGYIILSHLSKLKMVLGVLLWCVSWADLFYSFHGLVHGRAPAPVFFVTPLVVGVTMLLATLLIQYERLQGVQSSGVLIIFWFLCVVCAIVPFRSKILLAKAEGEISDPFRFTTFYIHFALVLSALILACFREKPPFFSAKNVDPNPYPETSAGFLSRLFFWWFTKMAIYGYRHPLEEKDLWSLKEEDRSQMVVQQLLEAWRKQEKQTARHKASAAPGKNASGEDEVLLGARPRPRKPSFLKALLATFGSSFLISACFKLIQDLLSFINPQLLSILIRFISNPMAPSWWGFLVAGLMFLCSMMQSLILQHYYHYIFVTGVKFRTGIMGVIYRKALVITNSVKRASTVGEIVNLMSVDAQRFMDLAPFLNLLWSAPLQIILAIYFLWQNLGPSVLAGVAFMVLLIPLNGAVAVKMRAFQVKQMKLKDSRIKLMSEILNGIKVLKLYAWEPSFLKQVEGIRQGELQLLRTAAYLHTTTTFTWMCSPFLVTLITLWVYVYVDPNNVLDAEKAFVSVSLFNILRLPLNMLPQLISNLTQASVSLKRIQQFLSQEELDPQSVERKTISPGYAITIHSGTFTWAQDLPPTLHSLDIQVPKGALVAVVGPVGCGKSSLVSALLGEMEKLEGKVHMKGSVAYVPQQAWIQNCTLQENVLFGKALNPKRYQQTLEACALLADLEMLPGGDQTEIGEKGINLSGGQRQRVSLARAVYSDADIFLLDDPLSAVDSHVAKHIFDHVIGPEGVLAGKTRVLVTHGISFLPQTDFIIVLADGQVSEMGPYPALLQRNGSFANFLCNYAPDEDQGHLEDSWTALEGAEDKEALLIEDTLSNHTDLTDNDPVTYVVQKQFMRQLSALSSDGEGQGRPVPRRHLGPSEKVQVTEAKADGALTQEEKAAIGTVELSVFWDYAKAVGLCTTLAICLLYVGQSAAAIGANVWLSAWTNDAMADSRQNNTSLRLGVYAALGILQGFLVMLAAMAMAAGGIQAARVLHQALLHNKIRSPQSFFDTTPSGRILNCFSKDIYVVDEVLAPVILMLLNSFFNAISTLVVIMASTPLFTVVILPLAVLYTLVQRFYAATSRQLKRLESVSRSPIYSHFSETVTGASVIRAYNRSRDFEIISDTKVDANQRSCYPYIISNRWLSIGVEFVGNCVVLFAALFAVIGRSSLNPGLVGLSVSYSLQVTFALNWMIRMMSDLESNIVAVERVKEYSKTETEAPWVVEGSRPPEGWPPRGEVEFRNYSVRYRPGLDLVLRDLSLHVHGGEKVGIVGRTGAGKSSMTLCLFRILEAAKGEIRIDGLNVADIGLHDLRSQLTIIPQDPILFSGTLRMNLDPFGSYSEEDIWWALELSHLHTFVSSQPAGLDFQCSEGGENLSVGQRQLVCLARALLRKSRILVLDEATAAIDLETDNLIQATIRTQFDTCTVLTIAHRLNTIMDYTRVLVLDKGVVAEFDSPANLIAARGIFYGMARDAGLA
Chain of Bile salt export pump (O95342 whole entry): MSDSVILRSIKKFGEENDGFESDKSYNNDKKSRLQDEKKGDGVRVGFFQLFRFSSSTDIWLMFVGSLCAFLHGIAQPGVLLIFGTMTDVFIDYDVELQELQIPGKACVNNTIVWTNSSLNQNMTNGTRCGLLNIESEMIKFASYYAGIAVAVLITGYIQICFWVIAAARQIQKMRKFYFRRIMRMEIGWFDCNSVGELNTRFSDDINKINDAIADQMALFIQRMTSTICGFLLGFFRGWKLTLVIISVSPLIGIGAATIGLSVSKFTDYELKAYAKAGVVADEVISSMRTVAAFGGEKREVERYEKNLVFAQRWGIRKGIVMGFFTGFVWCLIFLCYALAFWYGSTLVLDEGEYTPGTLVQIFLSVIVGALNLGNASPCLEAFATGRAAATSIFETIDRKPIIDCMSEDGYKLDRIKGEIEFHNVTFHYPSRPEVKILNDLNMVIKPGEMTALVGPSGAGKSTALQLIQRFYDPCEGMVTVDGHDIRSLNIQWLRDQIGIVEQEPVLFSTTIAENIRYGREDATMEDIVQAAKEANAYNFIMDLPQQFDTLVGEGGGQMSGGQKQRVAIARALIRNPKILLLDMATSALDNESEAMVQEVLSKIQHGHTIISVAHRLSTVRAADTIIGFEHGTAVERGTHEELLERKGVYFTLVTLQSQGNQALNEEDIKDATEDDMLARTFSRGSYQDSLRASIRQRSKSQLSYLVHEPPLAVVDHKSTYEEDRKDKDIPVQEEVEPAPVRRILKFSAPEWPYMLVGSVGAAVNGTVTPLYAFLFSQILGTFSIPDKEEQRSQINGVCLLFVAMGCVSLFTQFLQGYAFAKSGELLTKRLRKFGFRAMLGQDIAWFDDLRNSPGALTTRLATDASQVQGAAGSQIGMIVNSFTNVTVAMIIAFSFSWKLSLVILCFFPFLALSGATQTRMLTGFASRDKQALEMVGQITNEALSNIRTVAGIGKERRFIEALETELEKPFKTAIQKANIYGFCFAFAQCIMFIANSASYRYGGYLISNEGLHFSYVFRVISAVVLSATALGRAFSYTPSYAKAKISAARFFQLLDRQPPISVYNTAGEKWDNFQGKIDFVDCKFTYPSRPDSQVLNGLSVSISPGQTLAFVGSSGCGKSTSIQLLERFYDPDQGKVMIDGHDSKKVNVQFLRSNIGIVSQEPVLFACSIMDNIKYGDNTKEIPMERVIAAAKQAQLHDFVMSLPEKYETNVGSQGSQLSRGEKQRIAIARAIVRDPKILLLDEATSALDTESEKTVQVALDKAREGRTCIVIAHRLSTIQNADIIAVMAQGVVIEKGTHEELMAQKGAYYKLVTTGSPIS
Chain of ATP-binding cassette sub-family C member 2 (Q92887 whole entry): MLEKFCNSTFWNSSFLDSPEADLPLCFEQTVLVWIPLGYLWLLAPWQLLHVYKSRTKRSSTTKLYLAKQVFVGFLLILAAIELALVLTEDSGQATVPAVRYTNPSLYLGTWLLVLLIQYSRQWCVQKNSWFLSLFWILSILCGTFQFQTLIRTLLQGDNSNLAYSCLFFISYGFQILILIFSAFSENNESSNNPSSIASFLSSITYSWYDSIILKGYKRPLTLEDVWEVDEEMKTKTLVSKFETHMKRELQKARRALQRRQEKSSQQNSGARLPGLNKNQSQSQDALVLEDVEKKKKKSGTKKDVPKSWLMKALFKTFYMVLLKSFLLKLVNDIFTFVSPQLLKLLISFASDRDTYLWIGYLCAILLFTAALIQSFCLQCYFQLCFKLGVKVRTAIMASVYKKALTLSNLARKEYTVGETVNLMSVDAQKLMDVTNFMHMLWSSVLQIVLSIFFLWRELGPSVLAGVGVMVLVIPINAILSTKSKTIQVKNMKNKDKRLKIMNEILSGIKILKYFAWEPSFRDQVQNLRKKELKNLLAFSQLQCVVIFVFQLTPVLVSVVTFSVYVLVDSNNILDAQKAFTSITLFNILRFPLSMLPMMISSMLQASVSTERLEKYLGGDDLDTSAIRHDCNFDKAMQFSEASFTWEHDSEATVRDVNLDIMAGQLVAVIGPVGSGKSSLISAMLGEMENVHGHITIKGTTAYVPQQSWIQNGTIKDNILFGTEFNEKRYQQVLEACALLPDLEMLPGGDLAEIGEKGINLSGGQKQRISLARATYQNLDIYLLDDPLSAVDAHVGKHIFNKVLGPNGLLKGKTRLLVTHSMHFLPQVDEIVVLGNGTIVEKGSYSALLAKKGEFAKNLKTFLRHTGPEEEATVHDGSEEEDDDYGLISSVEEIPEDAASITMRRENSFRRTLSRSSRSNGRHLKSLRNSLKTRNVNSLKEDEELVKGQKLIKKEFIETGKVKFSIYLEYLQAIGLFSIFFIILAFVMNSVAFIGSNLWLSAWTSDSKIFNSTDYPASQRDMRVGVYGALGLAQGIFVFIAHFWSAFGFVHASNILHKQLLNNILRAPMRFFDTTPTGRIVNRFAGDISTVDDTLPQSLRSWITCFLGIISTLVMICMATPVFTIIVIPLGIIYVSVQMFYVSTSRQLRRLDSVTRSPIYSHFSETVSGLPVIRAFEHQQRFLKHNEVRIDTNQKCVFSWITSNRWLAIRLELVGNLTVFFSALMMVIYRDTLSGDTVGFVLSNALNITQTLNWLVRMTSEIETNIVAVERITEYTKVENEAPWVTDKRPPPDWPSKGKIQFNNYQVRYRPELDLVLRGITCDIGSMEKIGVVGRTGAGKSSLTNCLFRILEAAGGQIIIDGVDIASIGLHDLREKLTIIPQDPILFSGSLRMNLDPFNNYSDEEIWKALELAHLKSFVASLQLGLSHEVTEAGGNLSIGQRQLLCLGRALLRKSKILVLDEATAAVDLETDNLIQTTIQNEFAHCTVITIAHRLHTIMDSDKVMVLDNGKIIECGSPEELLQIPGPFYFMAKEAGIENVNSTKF

Row | SMILES | IC50 [1] | IC50 [3] | IC50 [5] | IC50 [7] | also measured
1 | CC[C@@H]1/C=C(\C)C[C@H](C)C[C@H](OC)[C@H]2O[C@@](O)(C(=O)C(=O)N3CCCC[C@H]3C(=O)O[C@H](/C(C)=C/[C@@H]3CC[C@H](Cl)[C@H](OC)C3)[C@H](C)[C@@H](O)CC1=O)[C@H](C)C[C@@H]2OC [PIMECROLIMUS] | > 133 µM | > 133 µM | 10 µM | > 133 µM | concentration at 12 h [2]: 2 nM; AUC at 12 h [4]: 23 nM·h; Ratio [6]: 0.00019
2 | Cc1ncc2n1-c1ccc(Cl)cc1C(c1ccccc1F)=NC2 [MIDAZOLAM] |  |  |  |  | Css [8]: 15 nM; AUC at 24 h [9]: 369 nM·h
3 | CN1CCN(C2=Nc3ccccc3Oc3ccc(Cl)cc32)CC1.O=C(O)CCC(=O)O [LOXAPINE SUCCINATE] | > 133 µM | > 133 µM | 77 µM | > 133 µM | concentration at 12 h [10]: 31 nM; Ratio [11]: 0.0004; AUC at 12 h [12]: 369 nM·h
4 | CC(C)OC(=O)CCC/C=C\C[C@@H]1[C@@H](CC[C@@H](O)CCc2ccccc2)[C@H](O)C[C@@H]1O [LATANOPROST] | > 133 µM | > 133 µM | 12.9 µM | > 133 µM | Ratio [13]: 0.00015; AUC at 24 h [14]: 47 nM·h; concentration at 24 h [15]: 2 nM
5 | CC[C@H](C)C(=O)O[C@H]1C[C@@H](C)C=C2C=C[C@H](C)[C@H](CC[C@@H]3C[C@@H](O)CC(=O)O3)[C@H]21 [LOVASTATIN] | > 133 µM | > 133 µM | 19.3 µM | > 133 µM | concentration at 24 h [16]: 10 nM; AUC at 24 h [17]: 238 nM·h
6 | COC(=O)C1=C(C)NC(C)=C(C(=O)OCC(C)C)C1c1ccccc1[N+](=O)[O-] (configuration not stated) [NISOLDIPINE] | > 133 µM | > 133 µM | 33 µM | 16.5 µM | Ratio [18]: 0.00017; concentration at 24 h [19]: 6 nM; AUC at 24 h [20]: 134 nM·h; Ratio [21]: 0

Reference: ChEMBL document CHEMBL4028801, “A multifactorial approach to hepatobiliary transporter assessment enables improved therapeutic compound development” (Toxicol Sci, 2013)
